The results in this text go back to patent publication US9963452B2, “Methods, compounds, and compositions for inhibition of ROS” (AUGUSTA PHARMACEUTICALS INC., priority 2013, dated 2018).

Molecules are shown by their SMILES. Some results are limits rather than exact numbers.

Type in all cases: cell-based
The test system of experiment [1] is HeLa cervical cancer cell line. As to the kind of experiment: In-vitro cell survival assay (Alamar blue), HeLa. The following applies: Homo sapiens, 24 h, one day after compound addition. The procedure: (§1) Five tumor-derived cell lines were treated with the ROS inhibitor compounds and cell survival was monitored to determine the cancer prohibition effects of the compounds. The cell lines included HeLa, a cervical cancer cell line, and four glioblastoma cell lines U138, U87, LN18, and U118. The basic protocol for the in-vitro cell survival assay is the same for all five cell lines. In particular, the cells were seeded in 96-well plates at 2-5×10^3 cells/well (cell line dependent) in culture medium. The cells were grown for 2 days before the compounds were dissolved in DMSO and added to final concentrations of 100 uM, 10 uM, or 1 uM (DMSO final concentration 0.5%). The cell culture was then assayed one day after the addition of the compounds. The assay used Alamar blue as a redox-sensitive dye that interrogates mitochondrial fitness of cells, and these assays provided a readout for cell proliferation and viability. The raw values were normalized to an average of several vehicle control wells and are presented as percent decrease in proliferation/viability, which is converted to half maximal effective concentration (EC50) values.
In general terms: Resazurin is reduced to fluorescent resorufin, in cell work by metabolically active cells.

Experiment [2] concerns LN18 glioblastoma cell line. As to the kind of experiment: In-vitro cell survival assay (Alamar blue), LN18. The following applies: Homo sapiens, LN-18, 24 h; LN18, one day after compound addition. The procedure: as §1
The test system of experiment [3] is U87 glioblastoma cell line. In words: In-vitro cell survival assay (Alamar blue), U87. The note with it: 24 h; U87, one day after compound addition. The procedure:
as §1

Experiment [4] has as its system U138 glioblastoma cell line. In words: In-vitro cell survival assay (Alamar blue), U138. The note with it: 24 h; U138, one day after compound addition. The procedure:
as §1

Experiment [5] has as its system U118 glioblastoma cell line. As to the kind of experiment: In-vitro cell survival assay (Alamar blue), U118. The following applies: 24 h; U118, one day after compound addition. The procedure:
as §1

As a reminder, the EC50 is the concentration needed to bring the measured effect to its halfway point. `O=C1NN=C(c2ccccc2)/C1=C/Nc1ccccc1` [drawing 368]: the EC50 in experiment [1] and in experiment [2] was over 100 µM each time.
Turning to `COc1ccc(N/C=C2\C(=O)NN=C2c2ccccc2)cc1` [drawing 369], the figures for the EC50 in experiment [1] and in experiment [2] were 100 µM and 78 µM, respectively.
In the case of `Cc1ccc(NC=C2C(=O)NN=C2c2ccccc2)cc1` [drawing 370], the results for the EC50 in experiment [1] and in experiment [2] were over 100 µM and 52 µM, respectively.
On to `Nc1cccc(C2CCN(c3nccc(Nc4ccc5ncsc5c4)n3)CC2)c1` [drawing 439], for which the EC50 was found to be 6 µM in experiment [1], 14 µM in experiment [3], 15 µM in experiment [2] and 5 µM in experiment [4].
For the molecule `c1cc(Nc2nccc(Nc3ccc4ncsc4c3)n2)cc(C2CCNCC2)c1` [drawing 440], the EC50 in experiment [1] turned out to be 15 µM; in experiment [3], 35 µM; in experiment [2], 18 µM; in experiment [4], 25 µM.
On the same counts, the results for `C1=C(c2cccc(Nc3nccc(Nc4ccc5ncsc5c4)n3)c2)CCNC1` [drawing 441] are 13 µM, 40 µM, 22 µM and 25 µM.
In the case of `Brc1cccc(Nc2nccc(Nc3ccc4ncsc4c3)n2)c1` [drawing 442], the EC50 in experiment [1], in experiment [3], in experiment [2] and in experiment [4] was over 100 µM throughout.
On to `O=C(c1ccc(Nc2ncc(Cl)c(Nc3ccc4ncsc4c3)n2)cc1)N1CCCCC1` [drawing 443], for which the EC50 in experiment [1], in experiment [3], in experiment [2] and in experiment [4] was over 100 µM each time.
For the molecule `CN1CCN(C(=O)c2ccc(Nc3ncc(Cl)c(Nc4ccc5ncsc5c4)n3)cc2)CC1` [drawing 444], the EC50 in experiment [1] worked out at 12 µM; in experiment [3], 15 µM; in experiment [2], 22 µM; in experiment [4] it was 28 µM.
Take `O=C(O)c1ccc(Nc2ncc(Cl)c(Nc3ccc4ncsc4c3)n2)cc1` [drawing 445]: the EC50 in experiment [1] is 5 µM; in experiment [3] it was over 100 µM; in experiment [2], 18 µM; in experiment [4], 100 µM.
With `CC(C)(C)OC(=O)NC1CCN(C(=O)c2ccc(Nc3ncc(Cl)c(Nc4ccc5ncsc5c4)n3)cc2)CC1` [drawing 446], the EC50 in experiment [1] was 15 µM; in experiment [3], 80 µM; in experiment [2], 18 µM; in experiment [4] it was 9 µM.
The like results for `CC(C)c1nc(Nc2ccc3ncsc3c2)nc(N2CCCC2)n1` [drawing 451] were, in that order, 30 µM, over 100 µM, 40 µM and 28 µM.
As to `CC(C)c1nc(Nc2ccc3ncsc3c2)nc(N2CCOCC2)n1` [drawing 452], the EC50 in experiment [1] was 100 µM; in experiment [3], over 100 µM; in experiment [2], 80 µM; in experiment [4], 80 µM.
For the molecule `CC(C)c1nc(Nc2ccc(C(=O)NCc3ccccc3)cc2)nc(Nc2cccc(Cc3nc4ccccc4s3)c2)n1` [drawing 453], the EC50 in experiment [1], in experiment [3], in experiment [2] and in experiment [4] was over 100 µM each time.
As to `CC(C)c1nc(Nc2ccc(C(=O)NCC3CCCCC3)cc2)nc(Nc2cccc(Cc3nc4ccccc4s3)c2)n1` [drawing 454], the EC50 in experiment [1], in experiment [3], in experiment [2] and in experiment [4] was over 100 µM in each case.
For the molecule `CC(C)c1nc(Nc2ccc(C(=O)N3CCCCC3)cc2)nc(Nc2ccc3ncsc3c2)n1` [drawing 455], the EC50 amounted to 30 µM in experiment [1], 40 µM in experiment [3], 30 µM in experiment [2] and 18 µM in experiment [4].
In the case of `CC(C)c1nc(Nc2ccc(C(=O)NC3CCCCC3)cc2)nc(Nc2ccc3ncsc3c2)n1` [drawing 456], the EC50 in experiment [1] is 28 µM; in experiment [3] it was 45 µM; in experiment [2], 30 µM; in experiment [4], 40 µM.
On the same counts, the results for `CC(C)c1nc(Nc2ccc(C(=O)N3CCCC3)cc2)nc(Nc2ccc3ncsc3c2)n1` [drawing 457] are 4 µM, 30 µM, 20 µM and 22 µM.
`CC(C)c1nc(Nc2ccc(C(=O)N3CCN(C)CC3)cc2)nc(Nc2ccc3ncsc3c2)n1` [drawing 458]: the EC50 in experiment [1] was 30 µM; in experiment [3] it was 35 µM; in experiment [2], 40 µM; in experiment [4] it was 28 µM.
As for `CC(C)c1nc(Nc2ccc(C(=O)NCc3ccccc3)cc2)nc(Nc2ccc3ncsc3c2)n1` [drawing 459], the EC50 in experiment [1] turned out to be 35 µM; in experiment [3], 100 µM; in experiment [2], 80 µM; in experiment [4], 80 µM.
Consider `CC(C)c1nc(Nc2ccc(C(=O)N3CCOCC3)cc2)nc(Nc2ccc3ncsc3c2)n1` [drawing 460], for which the EC50 in experiment [1] was 35 µM; in experiment [3], over 100 µM; in experiment [2] it was 80 µM; in experiment [4], over 100 µM.
With `CC(C)c1nc(Nc2ccc(N)cc2)nc(Nc2cc(C3CC3)[nH]n2)n1` [drawing 461], the EC50 in experiment [1] amounted to 14 µM; in experiment [3], 35 µM; in experiment [2] it was 40 µM; in experiment [4] it was 8 µM.
With `O=C(O)c1cccc(Nc2ncc(Cl)c(Nc3ccc4ncsc4c3)n2)c1` [drawing 462], the concentration giving a half-maximal response (EC50) is 15 µM in experiment [1], over 100 µM in experiment [3], 40 µM in experiment [2] and 100 µM in experiment [4].
As to `NCC1CCN(C(=O)c2ccc(Nc3ncc(Cl)c(Nc4ccc5ncsc5c4)n3)cc2)CC1` [drawing 463], the EC50 in experiment [1] is 70 µM; in experiment [3] it was over 100 µM; in experiment [2] it was 100 µM; in experiment [4], 80 µM.
Regarding `NC1CCN(C(=O)c2ccc(Nc3ncc(Cl)c(Nc4ccc5ncsc5c4)n3)cc2)CC1` [drawing 464], the EC50 is 30 µM in experiment [1], 40 µM in experiment [3], 40 µM in experiment [2] and 60 µM in experiment [4].
Consider `O=C(c1cccc(Nc2ncc(Cl)c(Nc3ccc4ncsc4c3)n2)c1)N1CCCCC1` [drawing 465], for which the EC50 is 7 µM in experiment [1], 12 µM in experiment [3], 14 µM in experiment [2] and 15.3 µM in experiment [4].
As to `CN1CCN(C(=O)c2cccc(Nc3ncc(Cl)c(Nc4ccc5ncsc5c4)n3)c2)CC1` [drawing 466], the EC50 came out at 2 µM in experiment [1], 24 µM in experiment [3], 15 µM in experiment [2] and 15 µM in experiment [4].
As to `COc1ccc(C2=CCNCC2)cc1Nc1nccc(Nc2ccc3ncsc3c2)n1` [drawing 467], the EC50 in experiment [1] was found to be 15 µM; in experiment [3], 18 µM; in experiment [2], 15 µM; in experiment [4], 6.9 µM.
Consider `O=C(NCC1CCNCC1)c1ccc(Nc2ncc(Cl)c(Nc3ccc4ncsc4c3)n2)cc1` [drawing 468], for which the EC50 in experiment [1], in experiment [3], in experiment [2] and in experiment [4] was over 100 µM throughout.
As to `NC1CCN(C(=O)c2cccc(Nc3ncc(Cl)c(Nc4ccc5ncsc5c4)n3)c2)CC1` [drawing 469], the EC50 in experiment [1] came to 20 µM; in experiment [3], 35 µM; in experiment [2], 40 µM; in experiment [4], 25 µM.
Regarding `NCC1CCN(C(=O)c2cccc(Nc3ncc(Cl)c(Nc4ccc5ncsc5c4)n3)c2)CC1` [drawing 470], the EC50 in experiment [1] was found to be 3 µM; in experiment [3], 18 µM; in experiment [2] it was 19 µM; in experiment [4], 20 µM.
In the case of `O=C(NCC1CCNCC1)c1cccc(Nc2ncc(Cl)c(Nc3ccc4ncsc4c3)n2)c1` [drawing 471], the EC50 in experiment [1] turned out to be 30 µM; in experiment [3] it was 80 µM; in experiment [2] it was 30 µM; in experiment [4] it was 80 µM.
As for `Cc1ccc(NC(=O)CCn2ccc3ccccc32)cc1` [drawing 472], the EC50 in experiment [1], in experiment [4] and in experiment [5] was over 100 µM in each case.
Regarding `CCOC(=O)c1ccc(NC(=O)CCn2ccc3ccccc32)cc1` [drawing 473], the EC50 in experiment [1], in experiment [4] and in experiment [5] was over 100 µM in each case.
Take `COc1ccc(NC(=O)CCn2ccc3ccccc32)cc1` [drawing 474]: the EC50 in experiment [1] was 30 µM; in experiment [4], over 100 µM; in experiment [5], over 100 µM.
As for `O=C(CCn1ccc2ccccc21)Nc1ccc(F)cc1` [drawing 475], the EC50 in experiment [1], in experiment [4] and in experiment [5] was over 100 µM each time.
With `COc1ccc(C(F)(F)F)cc1NC(=O)CCn1ccc2ccccc21` [drawing 476], the figures for the EC50 in experiment [1], in experiment [4] and in experiment [5] were over 100 µM, 98 µM and 47 µM, respectively.
For the molecule `O=C(CCn1ccc2ccccc21)Nc1cnccn1` [drawing 477], the EC50 amounted to 64 µM in experiment [1], 92 µM in experiment [4] and 33 µM in experiment [5].
`CCc1cc(Br)ccc1NC(=O)CCn1ccc2ccccc21` [drawing 478]: the EC50 in experiment [1] is 43 µM; in experiment [4], over 100 µM; in experiment [5] it was over 100 µM.
Turning to `NC(Cc1ccccc1)C(=O)n1ccc2cccnc21` (centres unmarked) [drawing 479], the EC50 in experiment [1] is 45 µM; in experiment [4] it was over 100 µM; in experiment [5] it was over 100 µM.
